# Measured values: patent US10576062B2, “Carbamoyloxymethyl triazole cyclohexyl acids as LPA antagonists” (Bristol-Myers Squibb Company, priority 2016, dated 2020)
# pIC50: −log10 of the molar value.
# Target: T1, human LPA1 (Homo sapiens, UniProt Q92633)
# T1 construct: expressed in transfected cells; host or cells: Chinese hamster ovary (CHO) cells
# Test: LPA1 functional antagonist assay (LPA-induced calcium flux)
# Type: cell-based
# Conditions: CHO cells overexpressing human LPA1; inhibition of calcium flux induced by 10 nM LPA; read-out: hLPA1 IC50
# Outline: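 CHO cells overexpressing human LPA1, loaded with calcium dye 30 min at 37° C, were preincubated 20 min at room temperature with compound (0.08 nM–5 μM, 0.5% DMSO) in HBSS/20 mM HEPES/0.1% fatty acid-free BSA.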
# T1 sequence (Q92633 whole entry): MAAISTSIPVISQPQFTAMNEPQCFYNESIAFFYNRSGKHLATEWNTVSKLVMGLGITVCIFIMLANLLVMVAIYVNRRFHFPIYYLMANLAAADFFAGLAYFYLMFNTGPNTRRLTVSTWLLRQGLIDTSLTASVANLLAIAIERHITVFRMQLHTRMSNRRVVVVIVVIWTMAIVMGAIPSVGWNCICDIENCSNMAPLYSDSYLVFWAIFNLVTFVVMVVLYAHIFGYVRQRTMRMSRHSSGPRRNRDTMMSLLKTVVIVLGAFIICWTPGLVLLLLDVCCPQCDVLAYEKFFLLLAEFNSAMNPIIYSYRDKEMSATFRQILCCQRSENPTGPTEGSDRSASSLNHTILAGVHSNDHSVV
row,pIC50,Structure (SMILES)
1,6.50,"CCCN(C)C(=O)OCCc1c(-c2ccc(O[C@H]3CCC[C@H](C(=O)O)C3)c(C)n2)nnn1C [Example 242, (1S,3S)-3-((2-Methyl-6-(1-methyl-5-(2-((methyl(propyl)carbamoyl)oxy)-ethyl)-1H-1,2,3-triazol-4-yl)pyridin-3-yl)oxy)cyclohexane-1-carboxylic acid]"
2,6.50,"CCCOCCN(C)C(=O)OCc1c(-c2ccc(O[C@H]3CCC[C@H](C(=O)O)C3)c(C)n2)nnn1C [Example 250, (1S,3S)-3-((2-methyl-6-(1-methyl-5-(((methyl(2-propoxyethyl)carbamoyl)oxy)methyl)-1H-1,2,3-triazol-4-yl)pyridin-3-yl)oxy)cyclohexane-1-carboxylic acid]"
3,7.77,"Cc1nc(-c2nnn(C)c2COC(=O)N(C)CCCC(C)F)ccc1O[C@H]1CCC[C@H](C(=O)O)C1 (stereo partly drawn) [Example 256, (1S,3S)-3-((6-(5-((((4-fluoropentyl)(methyl)carbamoyl)oxy)methyl)-1-methyl-1H-1,2,3-triazol-4-yl)-2-methylpyridin-3-yl)oxy)cyclohexane-1-carboxylic acid]"
4,7.30,"Cc1nc(-c2nnn(C)c2COC(=O)N(C)CCC(C)F)ccc1O[C@H]1CCC[C@H](C(=O)O)C1 (stereo partly drawn) [Example 260, (1S,3 S)-3-((6-(5-((((3-fluorobutyl)(methyl)carbamoyl)oxy)methyl)-1-methyl-1H-1,2,3-triazol-4-yl)-2-methylpyridin-3-yl)oxy)cyclohexane-1-carboxylic Acid]"
5,6.84,"Cc1nc(-c2nnn(C)c2COC(=O)N(C)CC(C)F)ccc1O[C@H]1CCC[C@H](C(=O)O)C1 (stereo partly drawn) [Example 261, (1S,3S)-3-((6-(5-((((2-fluoropropyl)(methyl)carbamoyl)oxy)methyl)-1-methyl-1H-1,2,3-triazol-4-yl)-2-methylpyridin-3-yl)oxy)cyclohexane-1-carboxylic acid]"
6,7.12,"Cc1nc(-c2nnn(C)c2COC(=O)N(C)CC2(C)CC2)ccc1O[C@H]1CCC[C@H](C(=O)O)C1 [Example 263, (1S,3S)-3-((2-methyl-6-(1-methyl-5-(((methyl((1-methylcyclopropyl)methyl)carbamoyl)oxy)methyl)-1H-1,2,3-triazol-4-yl)pyridin-3-yl)oxy)cyclohexane-1-carboxylic acid]"
7,7.12,"Cc1nc(-c2nnn(C)c2COC(=O)N(C)CC(C)(C)C)ccc1O[C@H]1CCC[C@H](C(=O)O)C1 [Example 264, (1S,3S)-3-((2-methyl-6-(1-methyl-5-(((methyl(neopentyl)carbamoyl)oxy)methyl)-1H-1,2,3-triazol-4-yl)pyridin-3-yl)oxy)cyclohexane-1-carboxylic acid]"
8,7.96,"CCCN(C)C(=O)OCc1c(-c2ccc(O[C@H]3CCC[C@H](C(=O)O)C3)c(C#N)n2)nnn1C [Example 270, (1S,3S)-3-((2-cyano-6-(1-methyl-5-(((methyl(propyl)carbamoyl)oxy)methyl)-1H-1,2,3-triazol-4-yl)pyridin-3-yl)oxy)cyclohexane-1-carboxylic acid]"

# Second part, the compound before the results:
row,Structure (SMILES),pIC50
1,"Cc1nc(-c2nnn(C)c2CCOC(=O)N(C)CC2CCC2)ccc1O[C@H]1CCC[C@H](C(=O)O)C1 [Example 241, (1S,3S)-3-((6-(5-(2-(((Cyclobutylmethyl)(methyl)carbamoyl)oxy)ethyl)-1-methyl-1H-1,2,3-triazol-4-yl)-2-methylpyridin-3-yl)oxy)cyclohexane-1-carboxylic Acid]",7.39
2,"Cc1nc(-c2nnn(C)c2CCOC(=O)N(C)C2CCCC2)ccc1O[C@H]1CCC[C@H](C(=O)O)C1 [Example 243, (1S,3S)-3-((6-(5-(2-((Cyclopentyl-(methyl)carbamoyl)oxy)ethyl)-1-methyl-1H-1,2,3-triazol-4-yl)-2-methylpyridin-3-yl)oxy)cyclohexane-1-carboxylic acid]",7.14
3,"Cc1nc(-c2nnn(C)c2CCOC(=O)N(C)Cc2ccccc2)ccc1O[C@H]1CCC[C@H](C(=O)O)C1 [Example 244, (1S,3S)-3-((6-(5-(2-((Benzyl(methyl)-carbamoyl)oxy)ethyl)-1-methyl-1H-1,2,3-triazol-4-yl)-2-methylpyridin-3-yl)oxy)cyclohexane-1-carboxylic acid]",7.27
4,"Cc1nc(-c2nnn(C)c2CCOC(=O)N(C)CC(C)C)ccc1O[C@H]1CCC[C@H](C(=O)O)C1 [Example 245, (1S,3S)-3-((6-(5-(2-((Isobutyl-(methyl)carbamoyl)oxy)ethyl)-1-methyl-1H-1,2,3-triazol-4-yl)-2-methylpyridin-3-yl)oxy)cyclohexane-1-carboxylic acid]",7.16
5,"Cc1nc(-c2nnn(C)c2CCOC(=O)N2CCCC2)ccc1O[C@H]1CCC[C@H](C(=O)O)C1 [Example 246, (2S,3S)-3-((2-Methyl-6-(1-methyl-5-(2-((pyrrolidine-1-carbonyl)oxy)-ethyl)-1H-1,2,3-triazol-4-yl)pyridin-3-yl)oxy)cyclohexane-1-carboxylic acid]",6.68
6,"Cc1nc(-c2nnn(C)c2CCOC(=O)N(C)C2CCC2)ccc1O[C@H]1CCC[C@H](C(=O)O)C1 [Example 247, (1S,3S)-3-((6-(5-(2-((Cyclobutyl(methyl)carbamoyl)oxy)ethyl)-1-methyl-1H-1,2,3-triazol-4-yl)-2-methylpyridin-3-yl)oxy)cyclo-hexane-1-carboxylic acid]",7.39
7,"Cc1nc(-c2nnn(C)c2CCOC(=O)NCC2CCC2)ccc1O[C@H]1CCC[C@H](C(=O)O)C1 [Example 248, (1S,3S)-3-((6-(5-(2-(((Cyclobutyl-methyl)carbamoyl)oxy)ethyl)-1-methyl-1H-1,2,3-triazol-4-yl)-2-methylpyridin-3-yl)oxy)cyclohexane-1-carboxylic acid]",6.84
8,"Cc1nc(-c2nnn(C)c2CCCOC(=O)N(C)Cc2ccccc2)ccc1O[C@H]1CCC[C@H](C(=O)O)C1 [Example 249, (1S,3S)-3-((6-(5-(3-((Benzyl(methyl)carbamoyl)oxy)propyl)-1-methyl-1H-1,2,3-triazol-4-yl)-2-methylpyridin-3-yl)oxy)cyclohexane-1-carboxylic Acid]",6.91
9,"C[C@@H]1C[C@H]1CN(C)C(=O)OCc1c(-c2ccc(O[C@H]3CCC[C@H](C(=O)O)C3)cn2)nnn1C [Example 251, (1S,3S)-3-((6-(1-methyl-5-(((methyl(((1R,2R)-2-methylcyclopropyl)methyl)carbamoyl)oxy)methyl)-1H-1,2,3-triazol-4-yl)pyridin-3-yl)oxy)cyclohexane-1-carboxylic acid]",7.57
10,"C[C@H]1C[C@@H]1CN(C)C(=O)OCc1c(-c2ccc(O[C@H]3CCC[C@H](C(=O)O)C3)cn2)nnn1C [Example 252, (1S,3S)-3-((6-(1-methyl-5-(((methyl(((1S,2S)-2-methylcyclopropyl)methyl)carbamoyl)oxy)methyl)-1H-1,2,3-triazol-4-yl)pyridin-3-yl)oxy)cyclohexane-1-carboxylic acid]",7.54
11,"Cc1nc(-c2nnn(C)c2COC(=O)N(C)CC(C)(C)F)ccc1O[C@H]1CCC[C@H](C(=O)O)C1 [Example 253, (1S,3S)-3-((6-(5-((((2-fluoro-2-methylpropyl)(methyl)carbamoyl)oxy)methyl)-1-methyl-1H-1,2,3-triazol-4-yl)-2-methylpyridin-3-yl)oxy)cyclohexane-1-carboxylic acid]",6.87
12,"Cc1nc(-c2nnn(C)c2COC(=O)N(C)C[C@@H]2C[C@H]2C)ccc1O[C@H]1CCC[C@H](C(=O)O)C1 [Example 257, (1S,3S)-3-((2-methyl-6-(1-methyl-5-(((methyl(((1R,2R)-2-methylcyclopropyl)methyl)carbamoyl)oxy)methyl)-1H-1,2,3-triazol-4-yl)pyridin-3-yl)oxy)cyclohexane-1-carboxylic Acid]",7.74
13,"Cc1nc(-c2nnn(C)c2COC(=O)N(C)CC(C)(F)F)ccc1O[C@H]1CCC[C@H](C(=O)O)C1 [Example 259, (1S,3 S)-3-((6-(5-((((2,2-difluoropropyl)(methyl)carbamoyl)oxy)methyl)-1-methyl-1H-1,2,3-triazol-4-yl)-2-methylpyridin-3-yl)oxy)cyclohexane-1-carboxylic Acid]",6.87
14,"Cc1nc(-c2nnn(C)c2COC(=O)N(C)CC2CC2C)ccc1O[C@H]1CCC[C@H](C(=O)O)C1 (stereo partly drawn) [Example 262, (1S,3S)-3-((2-methyl-6-(1-methyl-5-(((methyl((2-methylcyclopropyl)methyl)carbamoyl)oxy)methyl)-1H-1,2,3-triazol-4-yl)pyridin-3-yl)oxy)cyclohexane-1-carboxylic acid]",7.54
15,"CN(CC1CCC1)C(=O)OCc1c(-c2ccc(O[C@H]3CCC[C@H](C(=O)O)C3)c(CO)n2)nnn1C [Example 265, (1S,3 S)-3-((6-(5-((((cyclobutylmethyl)(methyl)carbamoyl)oxy)methyl)-1-methyl-1H-1,2,3-triazol-4-yl)-2-(hydroxymethyl)pyridin-3-yl)oxy)cyclohexane-1-carboxylic Acid]",7.17
16,"CN(CC1CCC1)C(=O)OCc1c(-c2ccc(O[C@H]3CCC[C@H](C(=O)O)C3)c(CF)n2)nnn1C [Example 266, (1S,3 S)-3-((6-(5-((((cyclobutylmethyl)(methyl)carbamoyl)oxy)methyl)-1-methyl-1H-1,2,3-triazol-4-yl)-2-(fluoromethyl)pyridin-3-yl)oxy)cyclohexane-1-carboxylic Acid]",7.57
17,"COCc1nc(-c2nnn(C)c2COC(=O)N(C)CC2CCC2)ccc1O[C@H]1CCC[C@H](C(=O)O)C1 [Example 268, (1S,3 S)-3-((6-(5-((((cyclobutylmethyl)(methyl)carbamoyl)oxy)methyl)-1-methyl-1H-1,2,3-triazol-4-yl)-2-(methoxymethyl)pyridin-3-yl)oxy)cyclohexane-1-carboxylic Acid]",6.99
18,"CN(CC1CCC1)C(=O)OCc1c(-c2ccc(O[C@H]3CCC[C@H](C(=O)O)C3)c(C(F)(F)F)n2)nnn1C [Example 269, (1S,3 S)-3-((6-(5-((((cyclobutylmethyl)(methyl)carbamoyl)oxy)methyl)-1-methyl-1H-1,2,3-triazol-4-yl)-2-(trifluoromethyl)pyridin-3-yl)oxy)cyclohexane-1-carboxylic Acid]",8.00
